# Results as given in US20180303809A1, “TREATMENT OF BURN PAIN BY TRPV1 MODULATORS” (Purdue Pharma L.P., priority 2013, published 2018).
# Columns and labels:
# Type in all cases: in vivo, rat
# male Sprague-Dawley rats [1] = experiment: Paw pressure assay, mechanical hyperalgesia (PWT) in thermal burn pain model; conditions: for % Decrease from Baseline (mean ± S.E.M.) of Paw Withdrawal Threshold / Paw Withdrawal Threshold (g) (mean ± S.E.M.): rat burn injury 55° C. 24 s
# Method: (§1) Test Animals: Each experiment used male Sprague-Dawley rats weighing between 190-260 g at the time of thermal burn injury. The rats were housed two per cage, and were allowed to acclimate to their environment for at least six days before testing began. The rats had free access to food and water at all times, except during testing and prior to oral (PO) administration of a test compound, when food was removed about 16 hours before dosing. The rats were divided into treatment groups, and one of the following compounds was administered to each group at the dose and by the route of administration indicated in Tables 5.2A to 5.2C, 5.3A and 5.3B, and 5.4A and 5.4B: ketorolac (Sigma-Aldrich, St. Louis, Mo.), AMG 517 (selective TRPV1 antagonist described in Em. Doherty et al., “Novel vanilloid receptor-1 antagonists:2. Structure-activity relationships of 4-oxopyrimidines leading to the selection of a clinical candidate,” J Med Chem 50:3515-3527 (2007).) (Purdue Pharma L. P., Cranbury, N.J.), indomethacin (Alexis Biochemicals, Farmingdale, N.Y.), gabapentin (Bosche Scientific, New Brunswick, N.J.), or (S)-3-chloro-5-(1,2-dihydroxyethyl)-N-(5-(trifluoromethyl)pyridin-2-yl)-5′,6′-dihydro-[2,4′-bipyridine]-1′(2′H)-carboxamide (Compound 1). The control groups were administered the vehicle for the compound of formula (I). The volume of administration for PO treatment was 5 ml/kg, and was the same for all treatment groups. Volume of administration for intraperitoneal (i.p.) drug administration was 2 ml/kg.
# (§2) To assess the actions of a compound of formula (I) for the treatment or prevention of burn pain, a model of thermal burn pain was used. A thermal burn injury was induced under isofluorane/O2 inhalation anesthesia. To assess mechanical hyperalgesia and weight bearing, a thermal injury was produced by immersing the left hind paw into water maintained at 55° C. for 24 seconds. The left hind paw of non-injured control animals was immersed in 22° C. water for 24 seconds. To assess thermal hyperalgesia, a thermal injury was produced by immersing the left hindpaw into water maintained at 50° C. for 48 seconds; the left hind-paw of non-injured control animals was immersed in 22° C. water for 48 seconds. The animals were assessed for response to noxious mechanical stimuli by determining PWT for mechanical hyperalgesia, weight bearing difference between the injured or non-injured side, or response to noxious thermal stimuli by determining PWL for thermal hyperalgesia, all as described below, prior to drug administration (baseline), then again at 1, 3 and 5 hours after induction of burn injury.
# The paw pressure assay was used to assess mechanical hyperalgesia. For this assay, hind paw withdrawal thresholds (PWT) to a noxious mechanical stimulus were determined using an analgesimeter (Model 7200, commercially available from Ugo Basile of Italy) as described in C. Stein, “Unilateral Inflammation of the Hindpaw in Rats as a Model of Prolonged Noxious Stimulation: Alterations in Behavior and Nociceptive Thresholds,” Pharmacol. Biochem. and Behavior 31:451-455 (1988). The rat's paw was placed on a small platform, and weight was applied in a graded manner up to a maximum of 250 grams. The endpoint was taken as the weight at which the paw was completely withdrawn. PWT was determined once for each rat at each time point, wherein the affected (ipsilateral; same side as the injury) rear paw was tested. […] All drug treatment groups were compared to the vehicle control group (i.e. injured, administered only the vehicle).
# male Sprague-Dawley rats [2] = experiment: Plantar test, thermal hyperalgesia (PWL) in thermal burn pain model; conditions: for % Change from Baseline (mean ± S.E.M.) of Paw Withdrawal Latency / Paw Withdrawal Latency (sec) (mean ± S.E.M.): rat burn injury 50° C. 48 s
# Method: as §1, §2
# The plantar test was used to assess thermal hyperalgesia. For this test, hind paw withdrawal latencies (PWL) to a noxious thermal stimulus were determined using a plantar test apparatus (commercially available from Ugo Basile of Italy) following the technique described by K. Hargreaves et al., “A New and Sensitive Method for Measuring Thermal Nociception in Cutaneous Hyperalgesia,” Pain 32(1):77-88 (1988). The maximum exposure time was set at 32 seconds to avoid tissue damage and any directed paw withdrawal from the heat source is taken as the end point. Three latencies were determined at each time point and averaged.
# male Sprague-Dawley rats [3] = experiment: Hind limb weight bearing (incapacitance meter, % WL) in thermal burn pain model; conditions: for % WL (mean ± S.E.M.), percentage of weight borne on the burn-injured left hind paw: rat burn injury 55° C. 24 s
# Method: as §1, §2
# A commercially available incapacitance meter was used to determine the weight distribution on the two hind paws of the animal (Linton Incapacitance Tester (Linton Instrumentation, Norfolk, UK)). The weight bearing difference (WBD) between the injured and non-injured hindpaw was measured. The animal was placed in the testing chamber that allows the animal to stand normally, distributing its body weight on the hind limbs for the test. Each hind paw was positioned on a separate pressure sensitive pad, which independently measures the pressure applied by each limb. The device continuously collects data after either a force threshold has been exceeded, or the investigator depresses the start pad. Rats were allowed to acclimate when placed on the apparatus, and when they were stationary, the force exerted was then continuously monitored for 3 s. The endpoint was the amount of pressure applied to each limb over time. Three readings were taken for each rat at each time point, and the average used for data analysis. WBD was expressed as “% WL”, i.e. the percentage of weight borne on the burn-injured left hind paw, using the following formula: […]
# where WLP is the weight on the left hind paw and WRP is the weight on the right (untreated) hind paw. The 50% value of % WL corresponds to an equal weight distribution across both hind paws. […]
# [4] = 3 mg/kg PO, 1 h after administration
# [5] = 3 mg/kg PO, 3 h after administration
# [6] = 3 mg/kg PO, 5 h after administration
# [7] = 3 mg/kg PO, baseline (prior to drug administration)
# [8] = 10 mg/kg PO, 1 h after administration
# [9] = 10 mg/kg PO, 3 h after administration
# [10] = 10 mg/kg PO, 5 h after administration
# [11] = 10 mg/kg PO, baseline (prior to drug administration)
# [12] = 30 mg/kg PO, 1 h after administration
# [13] = 30 mg/kg PO, 3 h after administration
# [14] = 30 mg/kg PO, 5 h after administration
# [15] = 30 mg/kg PO, baseline (prior to drug administration)
smiles,measurement,setting,value
"O=C(Nc1ccc(C(F)(F)F)cn1)N1CC=C(c2ncc([C@H](O)CO)cc2Cl)CC1 [Compound 1, (S)-3-chloro-5-(1,2-dihydroxyethyl)-N-(5-(trifluoromethyl)pyridin-2-yl)-5′,6′-dihydro-[2,4′-bipyridine]-1′(2′H)-carboxamide]",% Decrease from Baseline (mean ± S.E.M.) of Paw Withdrawal Threshold,male Sprague-Dawley rats [1]; [4],59 ± 1.8%
same,Paw Withdrawal Threshold (g) (mean ± S.E.M.),male Sprague-Dawley rats [1]; [4],97 ± 4.5 g
same,% Decrease from Baseline (mean ± S.E.M.) of Paw Withdrawal Threshold,male Sprague-Dawley rats [1]; [5],63.2 ± 2.1^ %
same,Paw Withdrawal Threshold (g) (mean ± S.E.M.),male Sprague-Dawley rats [1]; [5],88 ± 5.6 g
same,% Decrease from Baseline (mean ± S.E.M.) of Paw Withdrawal Threshold,male Sprague-Dawley rats [1]; [6],63 ± 1.4%
same,Paw Withdrawal Threshold (g) (mean ± S.E.M.),male Sprague-Dawley rats [1]; [6],90 ± 4.0 g
same,Paw Withdrawal Threshold (g) (mean ± S.E.M.),male Sprague-Dawley rats [1]; [7],240 ± 8.4 g
same,% Decrease from Baseline (mean ± S.E.M.) of Paw Withdrawal Threshold,male Sprague-Dawley rats [1]; [8],55 ± 3.2%
same,Paw Withdrawal Threshold (g) (mean ± S.E.M.),male Sprague-Dawley rats [1]; [8],108 ± 73^ g
same,% Decrease from Baseline (mean ± S.E.M.) of Paw Withdrawal Threshold,male Sprague-Dawley rats [1]; [9],60 ± 3.2%
same,Paw Withdrawal Threshold (g) (mean ± S.E.M.),male Sprague-Dawley rats [1]; [9],97 ± 8.5 g
same,% Decrease from Baseline (mean ± S.E.M.) of Paw Withdrawal Threshold,male Sprague-Dawley rats [1]; [10],66 ± 2.4%
same,Paw Withdrawal Threshold (g) (mean ± S.E.M.),male Sprague-Dawley rats [1]; [10],83 ± 5.4 g
same,Paw Withdrawal Threshold (g) (mean ± S.E.M.),male Sprague-Dawley rats [1]; [11],243 ± 6.5 g
same,% Decrease from Baseline (mean ± S.E.M.) of Paw Withdrawal Threshold,male Sprague-Dawley rats [1]; [12],37 ± 2.5 %
same,Paw Withdrawal Threshold (g) (mean ± S.E.M.),male Sprague-Dawley rats [1]; [12],153 ± 4.4 g
same,% Decrease from Baseline (mean ± S.E.M.) of Paw Withdrawal Threshold,male Sprague-Dawley rats [1]; [13],42 ± 4.5 %
same,Paw Withdrawal Threshold (g) (mean ± S.E.M.),male Sprague-Dawley rats [1]; [13],141 ± 9.0 g
same,% Decrease from Baseline (mean ± S.E.M.) of Paw Withdrawal Threshold,male Sprague-Dawley rats [1]; [14],61 ± 2.0^ %
same,Paw Withdrawal Threshold (g) (mean ± S.E.M.),male Sprague-Dawley rats [1]; [14],95 ± 4.5 g
same,Paw Withdrawal Threshold (g) (mean ± S.E.M.),male Sprague-Dawley rats [1]; [15],244 ± 6.0^ g
same,Effect on mechanical hyperalgesia associated with the burn injury,"male Sprague-Dawley rats [1]; rat, 30 mg/kg",significantly reduced mechanical hyperalgesia
same,Effect on thermal hyperalgesia,male Sprague-Dawley rats [2]; rat burn injury,did not significantly affect thermal hyperalgesia
same,% Change from Baseline (mean ± S.E.M.) of Paw Withdrawal Latency,male Sprague-Dawley rats [2]; [4],−45.8 ± 14.53%
same,Paw Withdrawal Latency (sec) (mean ± S.E.M.),male Sprague-Dawley rats [2]; [4],8.1 ± 0.77 s
same,% Change from Baseline (mean ± S.E.M.) of Paw Withdrawal Latency,male Sprague-Dawley rats [2]; [5],−34.4 ± 7.57%
same,Paw Withdrawal Latency (sec) (mean ± S.E.M.),male Sprague-Dawley rats [2]; [5],9.2 ± 0.99 s
same,% Change from Baseline (mean ± S.E.M.) of Paw Withdrawal Latency,male Sprague-Dawley rats [2]; [6],−35.7 ± 15.81%
same,Paw Withdrawal Latency (sec) (mean ± S.E.M.),male Sprague-Dawley rats [2]; [6],9.9 ± 0.70 s
same,Paw Withdrawal Latency (sec) (mean ± S.E.M.),male Sprague-Dawley rats [2]; [7],14.5 ± 1.22 s
same,% Change from Baseline (mean ± S.E.M.) of Paw Withdrawal Latency,male Sprague-Dawley rats [2]; [8],−36.0 ± 11.15%
same,Paw Withdrawal Latency (sec) (mean ± S.E.M.),male Sprague-Dawley rats [2]; [8],8.9 ± 1.08 s
same,% Change from Baseline (mean ± S.E.M.) of Paw Withdrawal Latency,male Sprague-Dawley rats [2]; [9],−19.7 ± 10.24%
same,Paw Withdrawal Latency (sec) (mean ± S.E.M.),male Sprague-Dawley rats [2]; [9],12.0 ± 0.66 s
same,% Change from Baseline (mean ± S.E.M.) of Paw Withdrawal Latency,male Sprague-Dawley rats [2]; [10],−22.5 ± 9.23%
same,Paw Withdrawal Latency (sec) (mean ± S.E.M.),male Sprague-Dawley rats [2]; [10],11.3 ± 0.98 s
same,Paw Withdrawal Latency (sec) (mean ± S.E.M.),male Sprague-Dawley rats [2]; [11],14.4 ± 1.17 s
same,% Change from Baseline (mean ± S.E.M.) of Paw Withdrawal Latency,male Sprague-Dawley rats [2]; [12],−34.3 ± 6.08%
same,Paw Withdrawal Latency (sec) (mean ± S.E.M.),male Sprague-Dawley rats [2]; [12],7.8 ± 0.73 s
same,% Change from Baseline (mean ± S.E.M.) of Paw Withdrawal Latency,male Sprague-Dawley rats [2]; [13],−15.7 ± 10.29%
same,Paw Withdrawal Latency (sec) (mean ± S.E.M.),male Sprague-Dawley rats [2]; [13],11.5 ± 1.04 s
same,% Change from Baseline (mean ± S.E.M.) of Paw Withdrawal Latency,male Sprague-Dawley rats [2]; [14],−16.6 ± 8.94%
same,Paw Withdrawal Latency (sec) (mean ± S.E.M.),male Sprague-Dawley rats [2]; [14],11.2 ± 0.81 s
same,Paw Withdrawal Latency (sec) (mean ± S.E.M.),male Sprague-Dawley rats [2]; [15],13.7 ± 0.92 s
same,Effect on weight bearing,male Sprague-Dawley rats [3]; rat burn injury,did not significantly affect weight bearing
same,"% WL (mean ± S.E.M.), percentage of weight borne on the burn-injured left hind paw",male Sprague-Dawley rats [3]; [4],24.4 ± 4.44%
same,"% WL (mean ± S.E.M.), percentage of weight borne on the burn-injured left hind paw",male Sprague-Dawley rats [3]; [5],42.0 ± 4.51%
same,"% WL (mean ± S.E.M.), percentage of weight borne on the burn-injured left hind paw",male Sprague-Dawley rats [3]; [6],49.5 ± 3.60%
same,"% WL (mean ± S.E.M.), percentage of weight borne on the burn-injured left hind paw",male Sprague-Dawley rats [3]; [7],50.6 ± 0.62%
same,"% WL (mean ± S.E.M.), percentage of weight borne on the burn-injured left hind paw",male Sprague-Dawley rats [3]; [8],37.6 ± 2.54%
same,"% WL (mean ± S.E.M.), percentage of weight borne on the burn-injured left hind paw",male Sprague-Dawley rats [3]; [9],47.3 ± 1.92%
same,"% WL (mean ± S.E.M.), percentage of weight borne on the burn-injured left hind paw",male Sprague-Dawley rats [3]; [10],49.0 ± 2.15%
same,"% WL (mean ± S.E.M.), percentage of weight borne on the burn-injured left hind paw",male Sprague-Dawley rats [3]; [11],50.6 ± 0.71%
same,"% WL (mean ± S.E.M.), percentage of weight borne on the burn-injured left hind paw",male Sprague-Dawley rats [3]; [12],31.4 ± 3.92%
same,"% WL (mean ± S.E.M.), percentage of weight borne on the burn-injured left hind paw",male Sprague-Dawley rats [3]; [13],50.3 ± 2.07%
same,"% WL (mean ± S.E.M.), percentage of weight borne on the burn-injured left hind paw",male Sprague-Dawley rats [3]; [14],55.6 ± 3.03%
same,"% WL (mean ± S.E.M.), percentage of weight borne on the burn-injured left hind paw",male Sprague-Dawley rats [3]; [15],50.3 ± 0.53%
